{"source": "patent US7122360B1", "about": "“Polypeptides, polynucleotides and uses thereof” (University of Dundee, priority 1998, dated 2006)", "key": {"MAPKAP-K1b": {"target": "T1, MAPKAP-K1b (Oryctolagus cuniculus, UniProt A0A5F9C4L9)", "T1 construct": "MAPKAP-K1b was purified from rabbit skeletal muscle (Sutherland et al., 1993); from tissue; host or cells: rabbit skeletal muscle", "T1 sequence (A0A5F9C4L9 1-740)": "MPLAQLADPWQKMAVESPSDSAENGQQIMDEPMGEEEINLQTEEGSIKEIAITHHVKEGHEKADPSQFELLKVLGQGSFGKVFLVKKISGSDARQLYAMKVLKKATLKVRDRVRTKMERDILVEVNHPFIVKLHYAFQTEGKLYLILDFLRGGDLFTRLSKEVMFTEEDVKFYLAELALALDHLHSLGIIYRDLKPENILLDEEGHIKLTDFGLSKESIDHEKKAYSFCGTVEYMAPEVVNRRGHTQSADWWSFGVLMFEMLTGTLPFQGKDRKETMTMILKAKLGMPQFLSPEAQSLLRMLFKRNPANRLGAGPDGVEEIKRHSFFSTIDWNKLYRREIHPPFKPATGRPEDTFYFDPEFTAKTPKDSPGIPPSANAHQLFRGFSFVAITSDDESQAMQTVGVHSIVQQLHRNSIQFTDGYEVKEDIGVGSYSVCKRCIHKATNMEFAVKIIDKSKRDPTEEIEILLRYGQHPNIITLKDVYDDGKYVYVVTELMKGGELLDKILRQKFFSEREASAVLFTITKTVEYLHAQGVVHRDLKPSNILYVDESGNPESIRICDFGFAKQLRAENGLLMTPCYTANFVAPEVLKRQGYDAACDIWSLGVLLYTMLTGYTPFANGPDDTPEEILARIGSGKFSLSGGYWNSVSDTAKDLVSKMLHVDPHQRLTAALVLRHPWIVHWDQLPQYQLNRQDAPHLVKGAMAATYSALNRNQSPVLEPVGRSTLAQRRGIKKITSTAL", "assay": "Substrate phosphorylation kinetics with MAPKAP-K1b", "format": "biochemical, rabbit", "protocol": "(§1) FIG. 8. […] (A) Comparison of the substrate specificities of MSK1, MAPKAP-K1a and MAPKAP-K1b towards the indicated peptides and CREB. Phosphorylation and analysis was carried out as described in Materials and Methods. The standard errors for all reported kinetic constants were within <+20% (SEM), and the data is reported as mean values for 2 independent experiments. The Vmax values are reported as a percentage of the value obtained using Crosstide ([…], peptide 1 (SEQ ID NO:16)) as a substrate. The peptide […] (SEQ ID NO:18) corresponding to residues 126–136 of CREB is termed CREBtide. The serine residues shown in bold correspond to the phosphorylated serine residues on the peptides. […] (B) GST-MSK1 (solid bars), GST-MAPKAPK-1a (open bars), MAPKAP-K-1b (speckled bars) or GST-MAPKAP-K2 (diagonal bars) were assayed with the indicated substrates. […] The phosphorylation of CREB by MAPKAP-K2 shown in the figure is corrected to show only the contribution of Ser133 phosphorylation to the total incorporation of phosphate into CREB. […]\n(§2) Phosphorylation of CREB and HSP27 by MSK1 and MAPKAP-K1a/b (see FIG. 8). MSK1 and MAPKAP-K1a expressed as GST fusion proteins were purified from TPA stimulated 293 cells (FIG. 3) and MAPKAP-K1b was purified from rabbit skeletal muscle (Sutherland et al., 1993). […] The ^32P-radioactivity incorporated was then determined by Cerenkov counting. […]"}, "MAPKAP-K1a [1]": {"target": "T2, MAPKAP-K1a (Rattus norvegicus, UniProt Q63531)", "T2 construct": "made in house; host or cells: human embryonic kidney 293 cells, TPA-stimulated", "T2 sequence (Q63531 whole entry)": "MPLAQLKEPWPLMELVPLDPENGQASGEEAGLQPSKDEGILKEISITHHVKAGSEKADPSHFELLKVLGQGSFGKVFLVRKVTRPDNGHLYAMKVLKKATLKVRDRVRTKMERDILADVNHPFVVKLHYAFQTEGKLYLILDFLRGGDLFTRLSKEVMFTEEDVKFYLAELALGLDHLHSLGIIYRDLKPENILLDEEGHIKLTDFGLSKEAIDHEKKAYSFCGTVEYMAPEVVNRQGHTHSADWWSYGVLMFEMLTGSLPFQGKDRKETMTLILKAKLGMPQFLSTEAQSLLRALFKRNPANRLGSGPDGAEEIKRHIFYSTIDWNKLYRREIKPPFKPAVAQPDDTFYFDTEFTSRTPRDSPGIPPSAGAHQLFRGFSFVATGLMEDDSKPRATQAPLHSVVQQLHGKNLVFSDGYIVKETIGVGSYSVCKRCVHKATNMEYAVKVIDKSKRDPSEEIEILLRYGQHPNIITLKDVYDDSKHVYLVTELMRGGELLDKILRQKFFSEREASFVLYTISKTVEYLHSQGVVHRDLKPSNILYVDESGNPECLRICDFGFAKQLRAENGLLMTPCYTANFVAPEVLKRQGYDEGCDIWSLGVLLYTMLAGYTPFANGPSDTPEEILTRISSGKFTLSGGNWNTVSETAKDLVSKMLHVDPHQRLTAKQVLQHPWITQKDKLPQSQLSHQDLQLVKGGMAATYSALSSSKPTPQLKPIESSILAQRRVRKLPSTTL", "assay": "Substrate phosphorylation kinetics with GST-MAPKAP-K1a", "format": "biochemical", "protocol": "as §1, §2"}, "MSK1 [2]": {"target": "MSK1 (Homo sapiens, UniProt O75582)", "sequence (O75582 whole entry)": "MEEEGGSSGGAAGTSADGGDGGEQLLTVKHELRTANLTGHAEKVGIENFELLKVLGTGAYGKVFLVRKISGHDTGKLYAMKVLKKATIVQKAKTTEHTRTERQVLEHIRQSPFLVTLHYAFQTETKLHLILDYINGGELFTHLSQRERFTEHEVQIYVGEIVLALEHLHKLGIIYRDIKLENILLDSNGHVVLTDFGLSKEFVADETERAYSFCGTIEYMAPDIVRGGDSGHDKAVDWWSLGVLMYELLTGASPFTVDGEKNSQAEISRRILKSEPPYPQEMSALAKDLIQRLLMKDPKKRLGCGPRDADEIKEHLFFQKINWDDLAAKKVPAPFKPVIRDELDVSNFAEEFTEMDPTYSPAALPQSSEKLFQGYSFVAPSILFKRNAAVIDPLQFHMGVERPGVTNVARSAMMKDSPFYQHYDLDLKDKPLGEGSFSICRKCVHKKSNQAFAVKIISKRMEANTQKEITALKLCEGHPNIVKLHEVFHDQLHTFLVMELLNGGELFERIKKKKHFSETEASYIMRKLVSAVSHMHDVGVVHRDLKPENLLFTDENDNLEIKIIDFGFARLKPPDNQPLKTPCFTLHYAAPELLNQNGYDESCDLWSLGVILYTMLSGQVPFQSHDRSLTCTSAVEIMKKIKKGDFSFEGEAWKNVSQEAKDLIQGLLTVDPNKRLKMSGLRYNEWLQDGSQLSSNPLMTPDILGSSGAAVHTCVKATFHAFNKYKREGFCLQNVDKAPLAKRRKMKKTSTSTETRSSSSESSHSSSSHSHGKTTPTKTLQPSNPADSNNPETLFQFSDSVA", "assay": "Substrate phosphorylation kinetics with GST-MSK1", "format": "biochemical", "set-up": "generate a full length FLAG-MSK 1 construct in the pCMV5 mammalian expression; made in house; host or cells: human embryonic kidney 293 cells (TPA-stimulated before lysis)", "protocol": "FIG. 8. MSK1 phosphorylates CREB at Ser133. (A) Comparison of the substrate specificities of MSK1, MAPKAP-K1a and MAPKAP-K1b towards the indicated peptides and CREB. Phosphorylation and analysis was carried out as described in Materials and Methods. The standard errors for all reported kinetic constants were within <+20% (SEM), and the data is reported as mean values for 2 independent experiments. The Vmax values are reported as a percentage of the value obtained using Crosstide ([…], peptide 1 (SEQ ID NO:16)) as a substrate. The peptide […] (SEQ ID NO:18) corresponding to residues 126–136 of CREB is termed CREBtide. The serine residues shown in bold correspond to the phosphorylated serine residues on the peptides. […] 75% of the radioactivity applied to the column was recovered from the major ^32P-containing peptide at 13% acetonitrile (the remainder of the radioactivity eluted as numerous minor peaks). […]\nPhosphorylation of CREB and HSP27 by MSK1 and MAPKAP-K1a/b (see FIG. 8). MSK1 and MAPKAP-K1a expressed as GST fusion proteins were purified from TPA stimulated 293 cells (FIG. 3) and MAPKAP-K1b was purified from rabbit skeletal muscle (Sutherland et al., 1993). […] The ^32P-radioactivity incorporated was then determined by Cerenkov counting. […] The supernatant, containing 95% of the ^32P-radioactivity, was chromatographed on a Vydac C18 column as described in the legend to FIG. 8. […]"}, "MSK1 [3]": {"test_system": "MSK1", "assay": "Activation of transfected Flag-MSK1 in 293 cells", "format": "cell-based, human", "conditions": "stimulation with the agonist", "protocol": "FIG. 6. Effect of mutation of MSK1 on activation by TPA and UV in 293 cells. 293 cells were transiently transfected with DNA constructs expressing Flag epitope tagged wild type MSK1, N-terminal (NT) “kinase dead” MSK1 and C-terminal (CT) “kinase dead” MSK1. […] The cells were lysed and the MSK1 was immunoprecipitated from the lysates and assayed with Crosstide.\nTransfection of MSK1 into 293 cells. 293 cells were cultured on 10 cm diameter dishes and transfected with the pCMV5 vector encoding the Flag epitope tagged MSK1 constructs using a modified calcium phosphate method (Alessi et al., 1996b). 24 h post-transfection, the cells were deprived of serum for 16 h, stimulated with TPA or exposed to UV radiation, the cells were then lysed in 1 ml of ice cold Buffer A, centrifuged at 13,000×g for 5 min, and the Flag tagged MSK1 protein immunoprecipitated from aliquots of lysate (containing 25 μg protein) using 2 μg of FLAG antibody coupled to 5 (1 of Protein G-Sepharose.\nImmunoprecipitates were incubated, washed and assayed for MSK1 activity as described above."}, "MAPKAP-K1a [4]": {"test_system": "MAPKAP-K1a", "assay": "Activation of overexpressed MAPKAP-K1a in 293 cells", "format": "cell-based, human", "conditions": "TPA stimulation, data not shown", "from_the_text": "FIG. 7. MSK1 is mainly localised in the nucleus of cells and MAPKAP-K1a in the cytosol. […] Data is from three independent experiments. For MSK1 controls n=9, 9 and 14; for TPA n+10, 11 and 15. For MAPKAP-K1a controls total n=22; for TPA total n=9 (excluding cells with extensive clumps of immunoreactive material in the cytoplasm). Bars represent standard error of the mean calculated according to Cochran (1953). (C) Selected samples for MSK1 (C, unstimulated and D, TPA) and for MAPKAP-K1a (E, unstimulated) are shown to illustrate structures and labelling distributions. Bar is 500 nm.\nMSK1 is localised in nuclei and MAPKAP-K1a in the cytoplasm. The subcellular location of wild type MSK1 that was overexpressed in 293 cells was investigated by quantitative immunoelectron microscopy (FIG. 7). MSK1 was largely located in the nucleus of unstimulated cells. The density of MSK1 in the nuclear compartment was 12 to 30-fold higher than in the cytoplasm (FIGS. 7A and 7C). […] Consistent with this observation MAPKAP-K1a, when overexpressed in cells, was largely localised in the cytoplasm (FIG. 7B). Moreover, no significant translocation of MAPKAP-K1a to the nucleus was observed following TPA stimulation of cells (FIGS. 7B and 7E) which induces 100-fold activation of this kinase (data not shown)."}, "MAPKAP-K1": {"test_system": "MAPKAP-K1", "assay": "NGF-induced activation of MAPKAP-K1 in PC12 cells"}}, "note": "Peptide text beside a SMILES is read from it.", "data": [{"molecule": "CC(C)C[C@H](NC(=O)[C@@H](NC(=O)[C@H](CCCNC(=N)N)NC(=O)[C@H](CC(N)=O)NC(=O)[C@H](CCCNC(=N)N)NC(=O)[C@H](CCCCN)NC(=O)[C@@H](N)CCCCN)[C@@H](C)O)C(=O)N[C@@H](CO)C(=O)N[C@H](C(=O)N[C@@H](C)C(=O)O)C(C)C", "note": "(H-KKRNRTLSVA-OH)", "values": [{"measurement": "Km for phosphorylation by MAPKAP-K1b", "setting": "MAPKAP-K1b", "result": "almost identical Km and Vmax values as for Crosstide"}, {"measurement": "Km for phosphorylation by MAPKAP-K1a", "setting": "MAPKAP-K1a [1]", "result": "almost identical Km and Vmax values as for Crosstide"}]}, {"molecule": "CC[C@H](C)[C@H](NC(=O)[C@@H](N)CCC(=O)O)C(=O)N[C@@H](CC(C)C)C(=O)N[C@@H](CO)C(=O)N[C@@H](CCCNC(=N)N)C(=O)N[C@@H](CCCNC(=N)N)C(=O)N1CCC[C@H]1C(=O)N[C@@H](CO)C(=O)N[C@@H](Cc1ccc(O)cc1)C(=O)N[C@@H](CCCNC(=N)N)C(=O)N[C@@H](CCCCN)C(=O)O", "note": "[CREBtide] (H-EILSRRPSYRK-OH)", "values": [{"measurement": "Km", "setting": "MSK1 [2]", "result": "< 0.1", "unit": "µM"}]}, {"molecule": "C[C@H](NC(=O)[C@H](Cc1ccccc1)NC(=O)[C@H](CO)NC(=O)[C@H](CO)NC(=O)[C@@H](NC(=O)[C@H](CCCNC(=N)N)NC(=O)[C@@H]1CCCN1C(=O)[C@H](CCCNC(=N)N)NC(=O)CN)[C@@H](C)O)C(=O)N[C@@H](CCC(=O)O)C(=O)NCC(=O)O", "note": "[Crosstide] (H-GRPRTSSFAEG-OH)", "values": [{"measurement": "Km", "setting": "MAPKAP-K1b", "result": "2 to 3", "unit": "µM"}, {"measurement": "Km", "setting": "MSK1 [2]", "result": "2 to 3", "unit": "µM"}, {"measurement": "Km", "setting": "MAPKAP-K1a [1]", "result": "2 to 3", "unit": "µM"}]}, {"molecule": "CCCCCCCCCCCCCC(=O)O[C@@H]1[C@@H](C)[C@@]2(O)[C@@H](C=C(CO)C[C@]3(O)C(=O)C(C)=C[C@@H]23)[C@@H]2C(C)(C)[C@]12OC(C)=O", "note": "[TPA, 12-O-tetradecanoylphorbol 13-acetate]", "values": [{"measurement": "activation of transfected wild type MSK1", "setting": "MSK1 [3]", "result": 200, "unit": "fold"}, {"measurement": "activation of overexpressed MAPKAP-K1a", "setting": "MAPKAP-K1a [4]", "result": 100, "unit": "fold"}]}, {"molecule": "NGF: nerve growth factor used as cell stimulus", "values": [{"measurement": "activation of MAPKAP-K1 by NGF", "setting": "MAPKAP-K1", "result": "five-fold"}]}]}
